{
  "source": "patent US4740499A",
  "about": "“Method of enhancing the bioactivity of atrial peptides” (Monsanto Company, priority 1986, dated 1988)",
  "key": {"[1]": {"assay": "Plasma AP-III levels (radioimmunoassay) in rats, second test: varied AP-III infusion rate, constant thiorphan dose", "format": "in vivo, rat", "details": "for Plasma AP-III concn.: thiorphan 3 mg/kg arterial after 30 min sample", "description": "(§1) Plasma levels of atriopeptin III (AP-III) were tested in rats in which the AP-III was infused intravenously both with and without contemporaneous administration of thiorphan.\n(§2) Male Sprague-Dawley rats, 240-310 g, were used for all tests. The rats were housed in the test facilities for at least 6 days before they were used.\n(§3) Cannulas were made of PE-10 (polyethylene) tubing inserted and glued into a piece of PE-50 tubing. Rats were anesthetized with pentobarbital (50 mg/kg i.p.) and had cannulas inserted into the left femoral vein and artery. Both were inserted four cm into the vessels and tied securely. They were then tunnelled under the skin and brought out between the rat's shoulder blades and then cut so that only 1-2 cm was externalized. Cannulas were glued in place using Superglue and filled with saline containing 100 units heparin/ml. Rats were allowed to wake up and then housed individually with food and water ad libitum.\n(§4) Two days after surgery, the rats were weighed and put into restraining cages that allowed limited movement. […] Blood was collected from the femoral artery and replaced with saline containing 10 units heparin/ml. In most tests, 0.3 ml blood was taken, except that when basal AP-III levels were measured 0.4 ml blood was withdrawn. Blood was immediately centrifuged in a microcentrifuge for one minute and plasma was frozen in plastic tubes placed on dry ice. Samples were kept in a -80° C. freezer until they were analyzed.\n(§5) Thiorphan was dissolved in a minimal amount of 0.1 N NaOH to produce the sodium salt. The solution was immediately neutralized using 0.5 N HCl and diluted to a final concentration with 0.9% saline.\nIn the second test, the level of thiorphan was kept constant at 3 mg/kg and the rate of AP-III infusion was varied. AP-III was infused into the femoral vein for a total of 60 minutes at a rate of 150,450 and 900 ng/kg/min; another group of rats received only an infusion of dextrose/saline to determine if thiorphan affected the basal levels of AP-III. Blood was taken at 15 and 30 minutes after the start of the AP-III infusion to check for a steady state AP-III plasma concentration. After the 30 min sample, thiorphan (3 mg/kg) was injected arterially and additional blood samples were taken 15 and 30 min later (45 and 60 minutes after the start of the AP-III infusion).\n(§6) Plasma AP-III levels were analyzed by radioimmunoassay using a second antibody to separate free and bound AP-III. The label was ^125 I-AP-III that was purified by HPLC after iodination. Conditions were set so that 35-40% of the total counts were precipitated. The incubation medium contained sodium phosphate, pH 7.4, 0.25% bovine serum albumin (BSA), 0.5% sodium azide and 3% PEG-8000 (polyethylene glycol). The primary antibody was from a guinea pig immunized against AP-III. The incubations were done overnight at 6° C. The next day, 2 ml of 0.125% BSA was added to each tube and then they were centrifuged for 45 min at 3000 rpm. They were decanted and the radioactivity was counted in a Micromedic gamma counter. The standard curve contained 10 to 600 pg AP-III/tube. Only the linear portion of the curve was used for quantification. Plasma samples were diluted so that the AP-III concentrations were in the range of the standard curve."}, "[2]": {"assay": "Plasma AP-III levels (radioimmunoassay) in rats, first test: constant AP-III infusion, varied thiorphan dose", "format": "in vivo, rat", "details": "for AP-III Plasma concn. / Increase of plasma AP-III levels over control levels: rat; for AP-III Plasma concn.: AP-III 833 ng/kg/min i.v. infusion; for Increase of plasma AP-III levels over control levels: AP-III 833 ng/kg/min", "description": "as §1, §2, §3, §4, §5\nAfter taking the second sample, thiorphan was given as a bolus injection into the femoral artery and the line was flushed with 0.2 ml saline. The doses of thiorphan were 1,3,10 and 30 mg/kg; one set of rats received only a saline bolus as a control. Blood was taken 10,20,30 and 60 minutes after the injection of thiorphan. AP-III was infused during the entire experiment for a total of 90 minutes.\nas §6"}, "[3]": {"assay": "HPLC analysis of thiorphan after dissolution in NaOH and neutralisation", "format": "physicochemical", "details": "dissolved in 0.1 N NaOH, neutralized with 0.5 N HCl, diluted with 0.9% saline", "description": "as §5"}},
  "data": [
    {"smiles": "O=C(O)CNC(=O)C(CS)Cc1ccccc1", "note": "(racemic) [thiorphan, N-(DL-2-benzyl-3-mercapto-propionyl)glycine]", "values": [
      {"measurement": "Plasma AP-III concn.", "setting": "[1]; rat, AP-III 150 ng/kg/min i.v. infusion, 45 min", "result": "2.6 ± 0.8", "unit": "ng/mL"},
      {"measurement": "Plasma AP-III concn.", "setting": "[1]; rat, AP-III 150 ng/kg/min i.v. infusion, 60 min", "result": "3.3 ± 1.7", "unit": "ng/mL"},
      {"measurement": "Plasma AP-III concn.", "setting": "[1]; rat, AP-III 450 ng/kg/min i.v. infusion, 45 min", "result": "11.2 ± 3.6", "unit": "ng/mL"},
      {"measurement": "Plasma AP-III concn.", "setting": "[1]; rat, AP-III 450 ng/kg/min i.v. infusion, 60 min", "result": "12.8 ± 5.8", "unit": "ng/mL"},
      {"measurement": "Plasma AP-III concn.", "setting": "[1]; rat, AP-III 900 ng/kg/min i.v. infusion, 45 min", "result": "29.8 ± 7.6", "unit": "ng/mL"},
      {"measurement": "Plasma AP-III concn.", "setting": "[1]; rat, AP-III 900 ng/kg/min i.v. infusion, 60 min", "result": "23.0 ± 6.0", "unit": "ng/mL"},
      {"measurement": "Plasma AP-III concn.", "setting": "[1]; rat, no AP-III infusion (dextrose/saline only, basal AP-III), 45 min", "result": "0.6 ± 0.3", "unit": "ng/mL"},
      {"measurement": "Plasma AP-III concn.", "setting": "[1]; rat, no AP-III infusion (dextrose/saline only, basal AP-III), 60 min", "result": "0.5 ± 0.2", "unit": "ng/mL"},
      {"measurement": "Increase of plasma AP-III levels after thiorphan administration", "setting": "[1]; rat, thiorphan 3 mg/kg given 30 min after start of various AP-III infusion rates", "result": "2-3 fold"},
      {"measurement": "Basal levels of AP-III after inhibitor", "setting": "[1]; rats receiving no exogenous peptide, thiorphan 3 mg/kg", "result": "did not increase"},
      {"measurement": "AP-III Plasma concn.", "setting": "[2]; thiorphan 1 mg/kg arterial bolus after 30 min sample, 40 min (10 min after thiorphan)", "result": "23.2 ± 3.1", "unit": "ng/mL"},
      {"measurement": "AP-III Plasma concn.", "setting": "[2]; thiorphan 1 mg/kg arterial bolus after 30 min sample, 50 min (20 min after thiorphan)", "result": "22.2 ± 3.9", "unit": "ng/mL"},
      {"measurement": "AP-III Plasma concn.", "setting": "[2]; thiorphan 1 mg/kg arterial bolus after 30 min sample, 60 min (30 min after thiorphan)", "result": "18.7 ± 2.2", "unit": "ng/mL"},
      {"measurement": "AP-III Plasma concn.", "setting": "[2]; thiorphan 1 mg/kg arterial bolus after 30 min sample, 90 min (60 min after thiorphan)", "result": "15.3 ± 3.9", "unit": "ng/mL"},
      {"measurement": "AP-III Plasma concn.", "setting": "[2]; thiorphan 3 mg/kg arterial bolus after 30 min sample, 40 min (10 min after thiorphan)", "result": "26.7 ± 3.5", "unit": "ng/mL"},
      {"measurement": "AP-III Plasma concn.", "setting": "[2]; thiorphan 3 mg/kg arterial bolus after 30 min sample, 50 min (20 min after thiorphan)", "result": "29.5 ± 4.0", "unit": "ng/mL"},
      {"measurement": "AP-III Plasma concn.", "setting": "[2]; thiorphan 3 mg/kg arterial bolus after 30 min sample, 60 min (30 min after thiorphan)", "result": "28.9 ± 5.6", "unit": "ng/mL"},
      {"measurement": "AP-III Plasma concn.", "setting": "[2]; thiorphan 3 mg/kg arterial bolus after 30 min sample, 90 min (60 min after thiorphan)", "result": "21.2 ± 3.9", "unit": "ng/mL"},
      {"measurement": "AP-III Plasma concn.", "setting": "[2]; thiorphan 10 mg/kg arterial bolus after 30 min sample, 40 min (10 min after thiorphan)", "result": "24.7 ± 2.7", "unit": "ng/mL"},
      {"measurement": "AP-III Plasma concn.", "setting": "[2]; thiorphan 10 mg/kg arterial bolus after 30 min sample, 50 min (20 min after thiorphan)", "result": "29.2 ± 3.1", "unit": "ng/mL"},
      {"measurement": "AP-III Plasma concn.", "setting": "[2]; thiorphan 10 mg/kg arterial bolus after 30 min sample, 60 min (30 min after thiorphan)", "result": "30.2 ± 4.8", "unit": "ng/mL"},
      {"measurement": "AP-III Plasma concn.", "setting": "[2]; thiorphan 10 mg/kg arterial bolus after 30 min sample, 90 min (60 min after thiorphan)", "result": "25.5 ± 5.5", "unit": "ng/mL"},
      {"measurement": "AP-III Plasma concn.", "setting": "[2]; thiorphan 30 mg/kg arterial bolus after 30 min sample, 40 min (10 min after thiorphan)", "result": "22.5 ± 2.7", "unit": "ng/mL"},
      {"measurement": "AP-III Plasma concn.", "setting": "[2]; thiorphan 30 mg/kg arterial bolus after 30 min sample, 50 min (20 min after thiorphan)", "result": "28.8 ± 5.6", "unit": "ng/mL"},
      {"measurement": "AP-III Plasma concn.", "setting": "[2]; thiorphan 30 mg/kg arterial bolus after 30 min sample, 60 min (30 min after thiorphan)", "result": "30.7 ± 6.0", "unit": "ng/mL"},
      {"measurement": "AP-III Plasma concn.", "setting": "[2]; thiorphan 30 mg/kg arterial bolus after 30 min sample, 90 min (60 min after thiorphan)", "result": "31.3 ± 7.8", "unit": "ng/mL"},
      {"measurement": "Increase of plasma AP-III levels over control levels", "setting": "[2]; later times after thiorphan", "result": 3, "unit": "fold"},
      {"measurement": "Increase of plasma AP-III levels over control levels", "setting": "[2]; ten minutes after injecting thiorphan", "result": "at least 2 fold"},
      {"measurement": "Increase of AP-III levels upon intravenous infusion", "setting": "[2]; rats, thiorphan 1-30 mg/kg of body weight", "result": "at least two-fold"},
      {"measurement": "Plasma AP-III concentrations vs control, analysis of variance", "setting": "[2]; thiorphan 1 mg/kg, all but the last time point", "result": "statistically different from control levels"},
      {"measurement": "Plasma AP-III concentrations vs control, analysis of variance", "setting": "[2]; thiorphan 3, 10 and 30 mg/kg, all time points after thiorphan", "result": "statistically different from control levels"},
      {"measurement": "Degradation due to method of dissolution (HPLC analysis)", "setting": "[3]", "result": "no apparent degradation"}
    ]}
  ]
}
